What was measured:
calcium receptor = settings: cited from earlier work
[1] = test system: HuPCaR 5.2 calcium receptor; experiment: fluorescence ([Ca^2+ ]i) in HEK 293 cells transfected with Cep4B containing the HuPCaR 5.2 insert; format: cell-based, human; settings: Ca^2+ 10 mM, Mg^2+ 20 mM; 37° C.
Protocol: Clonal cell lines that stably express the two human and the bovine calcium receptors have been isolated. Calcium receptor cDNAs were subcloned in two different, commercially available expression vectors; pMSG (obtained from Pharmacia) and Cep4B (obtained from Invitrogen). The first vector contains the selectable marker gene for xanthine-guanine phosphoribosyltransferase (gpt) allowing stably transfected cells to overcome the blockade of the purine biosynthetic pathway imposed by addition of 2 μg/ml aminopterin and 25 μg/ml mycophenolic acid. The second vector encodes a gene conferring resistance to the antibiotic hygromycin (used at 200 μg/ml). […]
Cells obtained from the pool of hygromycin selected HEK 293 cells transfected with Cep4B containing the HuPCaR 5.2 insert were plated on collagen coated Aklar squares which had been placed into individual wells of 12-well tissue culture plates. […] Measurements of fluorescence in response to calcium receptor agonists were performed at 37° C. in a spectrofluorimeter using excitation and emission wavelengths of 340 and 510 nm, respectively. For signal calibration, Fmax was determined after addition of ionomycin (40 μM) and the apparent Fmin was determined by addition of 0.3 M EGTA, 2.5 M Tris-HCl; pH 10.

[2] = test system: human parathyroid cell calcium receptor; experiment: stimulation of calcium-activated chloride currents in Xenopus oocytes injected with calcium receptor cRNA; format: cell-based; settings: calcium-activated chloride current
Protocol: Representative cDNA inserts for both size classes were subcloned into the plasmid vector pBluescript SK. Linearization followed by in vitro transcription using T7 RNA polymerase produced cRNA transcripts. The cRNA transcripts were injected into Xenopus oocytes (150 ng/μl RNA; 50 nl/oocyte) for functional analysis. Following incubation periods of 2-4 days, the oocytes were assayed for the presence of functional calcium receptors. Both clone types gave rise to functional calcium receptors as assessed by the stimulation of calcium-activated chloride currents upon addition of appropriate calcium receptor agonists. […] Thus, both clones encode a functional, human parathyroid cell calcium receptor.
In addition, pHuPCaR4.0 encodes glutamine (Gln) at aa#925 and glycine (Gly) at position 990 whereas pHuPCaR5.2 encodes arg (Arg) at both equivalent positions. The human CaR gene encodes for Gln and Arg, respectively, at these positions. The difference between the pHuPCaR4.0 cDNA compared to human DNA appears to represent a true sequence polymorphism within the human population while the single base change in pHuPCaR5.2 probably reflects a mutation which occurred during its cloning. […] However, it is possible that these two receptor isoforms are functionally and/or pharmacologically distinct.

human subjects = experiment: pharmacological activity in human subjects after oral doses; format: in vivo; settings: 10-400 mg oral doses
From the text: Proper dosing can also be carried out using standard techniques. […] Thus, the glucuronide conjugate of 17Q may be exerting some beneficial effect.

human calcium receptor = molecular target: T1, human calcium receptor (Homo sapiens, UniProt P41180, R990G); experiment: increases in [Ca^2+ ]i in HEK-293 cells expressing the human calcium receptor (fura-2 loaded HEK 293/pHuPCaR4.0 cells), % activity; format: cell-based
T1 construct: expressed in transfected cells; host or cells: HEK 293
T1 sequence (P41180 20-1078 R990G): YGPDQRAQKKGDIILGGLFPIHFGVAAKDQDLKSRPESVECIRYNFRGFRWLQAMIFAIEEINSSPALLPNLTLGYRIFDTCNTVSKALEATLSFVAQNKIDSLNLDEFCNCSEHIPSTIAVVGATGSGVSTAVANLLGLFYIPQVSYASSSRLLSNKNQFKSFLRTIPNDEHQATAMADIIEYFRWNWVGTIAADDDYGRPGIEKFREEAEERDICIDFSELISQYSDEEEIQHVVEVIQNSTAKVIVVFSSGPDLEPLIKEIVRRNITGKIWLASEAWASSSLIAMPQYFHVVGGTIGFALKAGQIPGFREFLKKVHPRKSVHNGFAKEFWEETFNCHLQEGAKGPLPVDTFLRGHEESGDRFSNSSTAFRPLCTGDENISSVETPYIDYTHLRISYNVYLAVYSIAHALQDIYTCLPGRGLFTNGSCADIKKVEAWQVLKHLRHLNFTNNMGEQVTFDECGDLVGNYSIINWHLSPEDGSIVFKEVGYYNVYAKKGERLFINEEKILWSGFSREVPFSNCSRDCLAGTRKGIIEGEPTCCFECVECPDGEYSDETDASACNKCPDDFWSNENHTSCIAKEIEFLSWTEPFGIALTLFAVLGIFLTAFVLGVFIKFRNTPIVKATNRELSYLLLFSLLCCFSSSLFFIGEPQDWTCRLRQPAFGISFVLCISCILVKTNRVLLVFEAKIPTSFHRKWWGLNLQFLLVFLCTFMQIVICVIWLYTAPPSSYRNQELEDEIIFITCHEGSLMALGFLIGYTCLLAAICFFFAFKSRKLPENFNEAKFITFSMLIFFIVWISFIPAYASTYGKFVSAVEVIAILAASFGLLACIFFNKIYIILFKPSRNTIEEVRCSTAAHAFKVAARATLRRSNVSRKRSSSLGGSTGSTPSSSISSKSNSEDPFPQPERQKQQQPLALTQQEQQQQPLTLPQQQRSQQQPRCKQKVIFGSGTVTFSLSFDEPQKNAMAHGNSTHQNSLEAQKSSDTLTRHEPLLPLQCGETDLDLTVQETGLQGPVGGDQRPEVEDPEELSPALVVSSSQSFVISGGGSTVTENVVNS

[3] = test system: Parathyroid Cell Calcium Receptor; experiment: EC50 in parathyroid cells or HEK 293/pHuPCaR4.0 cells loaded with fura-2; format: cell-based, calves and humans; settings: parathyroid cells or HEK 293/pHuPCaR4.0, fura-2; cell type not given per value
Protocol: This section describes procedures used to obtain parathyroid cells from calves and humans, and to use the parathyroid cells to measure calcium receptor activity.
Human parathyroid glands, were obtained from patients undergoing surgical removal of parathyroid tissue for primary or uremic hyperparathyroidism (uremic HPT), and were treated similarly to bovine tissue.
Glands were trimmed of excess fat and connective tissue and then minced with fine scissors into cubes approximately 2-3 mm on a side. Dissociated parathyroid cells were prepared by collagenase digestion and then purified by centrifugation in Percoll buffer.
Primary culture also has the advantage that cells can be labeled with isotopes to near isotopic equilibrium, as is necessary for studies involving measurements of inositol phosphate metabolism.
ITS+ is a premixed solution containing insulin, transferrin, selenium, and bovine serum albumin (BSA)-linolenic acid (Collaborative Research, Bedford, Mass.). The cells were then transferred to plastic flasks (75 or 150 cm^2; Falcon) and incubated overnight at 37° C. in a humid atmosphere of 5% CO2. No serum is added to these overnight cultures, since its presence allows the cells to attach to the plastic, undergo proliferation, and dedifferentiate.
The cells were then pelleted, resuspended in the same buffer, but lacking the ester, and incubated a further 15 minutes at 37° C. The cells were subsequently washed twice with PCB containing 0.5 mM CaCl2 and 0.5% BSA and maintained at room temperature (about 20° C.). Immediately before use, the cells were diluted five-fold with prewarmed 0.5 mM CaCl2 -PCB to obtain a final BSA concentration of 0.1%. The concentration of cells in the cuvette used for fluorescence recording was 1-2×10^6 /ml.
The fluorescence of indicator-loaded cells was measured at 37° C. in a spectrofluorimeter (Biomedical Instrumentation Group, University of Pennsylvania, Philadelphia, Pa.) equipped with a thermostated cuvette holder and magnetic stirrer using excitation and emission wavelengths of 340 and 510 nm, respectively. […] To correct the calibration for dye leakage, cells were placed in the cuvette and stirred at 37° C. for 2-3 minutes. The cell suspension was then removed, the cells pelleted, and the supernatant returned to a clean cuvette. […] This estimate was subtracted from the apparent Fmin.
HEK 293 cells transfected with pHuPCaR4.0 were loaded with fura-2 by incubating the cells in Dulbecco's modified Eagle's media buffered with 20 mM HEPES containing about 5 μM […] for one hour at room temperature. Cell were then rinsed with Hank's balanced salt solution buffered with 20 mM HEPES containing 1 mM CaCl2 and 1 mM MgCl2. Compounds to be tested were then added to the cells and fluorescence was measured (excitation and emission wavelengths of 340 and 510 nm, respectively).

Row | Structure (SMILES) | binding site on the calcium receptor (calcium receptor) | increases in [Ca^2+ ]i [1] | activation of oocyte-expressed calcium receptor [2] | pharmacological activity in human subjects (human subjects) | % activity (human calcium receptor; 33 ng/mL) | % activity (human calcium receptor; 330 ng/mL) | EC50 [3]
1 | COc1cccc([C@@H](C)NCCCc2ccccc2)c1 [NPS R-467] | binds to the calcium receptor at a different site (i.e., an allosteric site) than extracellular calcium | Robust increases in [Ca^2+ ]i | activated the oocyte-expressed receptor at about the same concentrations known to be effective for the native parathyroid cell receptor |  |  |  | 
2 | COc1cccc([C@@H](C)NCCCc2ccccc2Cl)c1 [NPS R-568, reference compound] |  |  | activated the oocyte-expressed receptor at about the same concentrations known to be effective for the native parathyroid cell receptor | showed pharmacological activity in human subjects | 69% | 95% | 600 nM

From patent US6211244A, “Calcium receptor-active compounds” (priority 1995, dated 2001)
